Measured values taken from patent publication US11098203B2, “Polymer coatings” (COMMONWEALTH SCIENTIFIC AND INDUSTRIAL RESEARCH ORGANISATION, priority 2016, dated 2021).

melting point: 121 to 122 °C
Structure (SMILES): C=CC(=O)N1C(=C)C(c2ccccc2F)CC1=O (stereo not shown) [DHP, 5-methylene-1-(prop-2-enoyl)-4-(2-fluorophenyl)-dihydropyrrol-2-one]
